Reference: PubChem BioAssay (NCI)
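48-hour exposure; five concentrations; linearly interpolated endpoints. At the TGI there is no net growth.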

How the values were obtained:
Test in all cases: NCI anticancer screen, dose series, 48 h
A498 renal = system: A498 renal
U251 CNS = system: U251 CNS
UO-31 renal = system: UO-31 renal
SW-620 colon = system: SW-620 colon
IGROV1 ovarian = system: IGROV1 ovarian
SF-539 CNS = system: SF-539 CNS
DMS 273 small cell lung = system: DMS 273 small cell lung
OVCAR-8 ovarian = system: OVCAR-8 ovarian
OVCAR-3 ovarian = system: OVCAR-3 ovarian
SK-MEL-28 melanoma = system: SK-MEL-28 melanoma
MALME-3M melanoma = system: MALME-3M melanoma
SK-MEL-2 melanoma = system: SK-MEL-2 melanoma
RXF 393 renal = system: RXF 393 renal
M14 melanoma = system: M14 melanoma
SF-295 CNS = system: SF-295 CNS
NCI-H460 lung = system: NCI-H460 lung
HL-60(TB) leukemia = system: HL-60(TB) leukemia
SNB-78 CNS = system: SNB-78 CNS
SNB-75 CNS = system: SNB-75 CNS
CAKI-1 renal = system: CAKI-1 renal
TK-10 renal = system: TK-10 renal
COLO 205 colon = system: COLO 205 colon
KM20L2 colon = system: KM20L2 colon
DMS 114 small cell lung = system: DMS 114 small cell lung
NCI-H522 lung = system: NCI-H522 lung
SF-268 CNS = system: SF-268 CNS
CCRF-CEM leukemia = system: CCRF-CEM leukemia
SNB-19 CNS = system: SNB-19 CNS
HOP-62 NSCLC = system: HOP-62 NSCLC
SR leukemia = system: SR leukemia
HT29 colon = system: HT29 colon
OVCAR-4 ovarian = system: OVCAR-4 ovarian
HOP-18 NSCLC = system: HOP-18 NSCLC
SN12C renal = system: SN12C renal
786-0 renal = system: 786-0 renal
UACC-62 melanoma = system: UACC-62 melanoma
NCI-H226 lung = system: NCI-H226 lung
MOLT-4 leukemia = system: MOLT-4 leukemia
SK-MEL-5 melanoma = system: SK-MEL-5 melanoma
KM12 colon = system: KM12 colon
DLD-1 colon = system: DLD-1 colon
HOP-92 NSCLC = system: HOP-92 NSCLC
HCC-2998 colon = system: HCC-2998 colon
A549 NSCLC = system: A549 NSCLC
HCT-116 colon = system: HCT-116 colon
UACC-257 melanoma = system: UACC-257 melanoma
NCI-H23 lung = system: NCI-H23 lung
ACHN renal = system: ACHN renal
LXFL 529 NSCLC = system: LXFL 529 NSCLC
EKVX NSCLC = system: EKVX NSCLC
XF 498 CNS = system: XF 498 CNS
HCT-15 colon = system: HCT-15 colon
SK-OV-3 ovarian = system: SK-OV-3 ovarian

Measured: TGI

NNC(=O)N/N=C1\C(=O)N(c2ccc(Cl)c(Cl)c2)C(=O)C(=O)C1c1nc2ccccc2s1 (stereo not drawn)
> 100 µM: all assays above
